How the values were obtained:
[1] = tested on: α-secretase; experiment: α-secretase activity (APPsα, western blot); assay type: cell-based, human; conditions: APP-H4 culture supernatant, APPsα (FIG. 2)
Experimental: APP-H4 cells were seeded to a 6-well plate at a density of 12×10^4 cells/1.5 mL, and cultured in Dulbecco's modified Eagle's medium (DMEM; Nacalai Tesque, Inc.) added with 10% fetal bovine serum (FBS; Equitech-Bio, Inc. [Kerrville, Tex., USA]), 100 U/mL penicillin+100 μg/mL streptomycin (Nacalai Tesque, Inc.). After culture for 24 hr, the culture supernatant was removed, and the medium was exchanged with a medium with reduced use amount of serum, Opti-MEM (registered trade mark) I Reduced Serum Medium (Life Technologies Corporation, Carlsbad, Calif., USA) (1 mL). A polyphenol derivative (1 μL) to be the test target was added, and the mixture was further cultured for 48 hr. After culture, the culture supernatant was recovered in a tube (total amount 1.5 mL), centrifuged at 4,000×g/4° C./10 min to remove dead cells, and the supernatant (800 μL) was placed in a new tube. The culture supernatant was preserved at −80° C. before sample preparation. The cells were washed twice with ice-cooled phosphate-buffered saline (PBS). Thereafter, the cells were scraped from the plate using a Cell Scraper. […]
(§1) The signal intensity of the band was quantified using a densitometer LAS-4000 (GE Healthcare UK Ltd.) and image analysis software Science Laboratory 2003 Image Gauge Version 4.23 (Fujifilm Holdings Corporation, Tokyo, Japan). […]

[2] = tested on: neprilysin, α-secretase, β-secretase; experiment: overall conclusion on modulation of neprilysin, α-secretase and β-secretase (Example 1); assay type: cell-based, human; conditions: conclusion from the results of Example 1
Experimental: (§2) APP-H4 cells were seeded to a 6-well plate at a density of 12×10^4 cells/1.5 mL, and cultured in Dulbecco's modified Eagle's medium (DMEM; Nacalai Tesque, Inc.) added with 10% fetal bovine serum (FBS; Equitech-Bio, Inc. [Kerrville, Tex., USA]), 100 U/mL penicillin+100 μg/mL streptomycin (Nacalai Tesque, Inc.). After culture for 24 hr, the culture supernatant was removed, and the medium was exchanged with a medium with reduced use amount of serum, Opti-MEM (registered trade mark) I Reduced Serum Medium (Life Technologies Corporation, Carlsbad, Calif., USA) (1 mL). A polyphenol derivative (1 μL) to be the test target was added, and the mixture was further cultured for 48 hr. After culture, the culture supernatant was recovered in a tube (total amount 1.5 mL), centrifuged at 4,000×g/4° C./10 min to remove dead cells, and the supernatant (800 μL) was placed in a new tube. The culture supernatant was preserved at −80° C. before sample preparation. The cells were washed twice with ice-cooled phosphate-buffered saline (PBS). Thereafter, the cells were scraped from the plate using a Cell Scraper. The cells were recovered in a 1.5 mL tube and centrifuged at 4,000×g/4° C./10 min. The supernatant was removed and the cells were preserved at −80° C. before sample preparation. The frozen cells were lysed in 40 μL of solubilization buffer containing 1% Triton X-100, protease inhibitor cocktail Complete™ EDTA-free (Roche) and 50 mM Tris-HCl on ice. The cell lysate was incubated on ice for 60 min, centrifuged at 4° C., 21,900×g for 30 min, and the supernatant was recovered and used as a solubilization cell extract.
The neprilysin-dependent neutral endopeptidase activity of the cell extract was measured fluorescence quantitatively by an indirect coupled enzyme assay method. As a neutral endopeptidase substrate, succinyl-Ala-Ala-Phe-7-amino-4-methylcoumarin (suc-AAF-AMC) (1-1315; Bachem) was used. Total 50 μL of the reaction mixture was prepared such that the final concentration was substrate 0.1 mM suc-AAF-AMC, protein in the cell extract 1-6 μg, 100 mM MES buffer (pH 6.5). With the time of addition of the substrate as the start of the reaction, the mixture was reacted at 37° C. for 1 hr, and Phe-AMC was cut out from the substrate by neutral endopeptidase. Then, to the reaction mixture was added a solution (2.5 μL) containing 0.1 mg (0.4 unit equivalent)/mL leucine aminopeptidase (L-5006; Sigma-Aldrich), and 0.2 mM phosphoramidon (4082; Peptide Institute). The mixture was reacted at 37° C. for 30 min, and Phe (phenylalanine) residue was cut out from Phe-AMC by aminopeptidase. Using microplate spectrometer Infinite M-1000 (Tecan), the fluorescence intensity of free AMC was measured by measuring at an excitation wavelength 390 nm and a fluorescence wavelength 460 nm on a half-well size 96-well black plate (#3695; Corning). The neprilysin-dependent neutral endopeptidase activity was determined based on a decrease in the activity due to 10 μM thiorphan (T-6031; Sigma-Aldrich) as a neprilysin specific inhibitor.
After thawing from −80° C., the aforementioned culture supernatant was mixed with 6×SDS-polyacrylamide gel electrophoresis (SDS-PAGE) sample buffer (Nacalai Tesque, Inc.) at a ratio of 5:1, boiled for 5 min, and used as a detection sample of APPsα which is a metabolite of APP by α-secretase and APPsβ which is a metabolite of APP by β-secretase in western blot analysis. […]

[3] = coefficient of partition for octanol, in accordance with Fudouji et al. 2009; cited from earlier work
[4] = tested on: APP; experiment: extracellularly secreted APPsα/APPsβ ratio (western blot); assay type: cell-based, human; conditions: APP-H4 culture supernatant (FIG. 2)
Experimental: as §2
After thawing from −80° C., the aforementioned culture supernatant was mixed with 6×SDS-polyacrylamide gel electrophoresis (SDS-PAGE) sample buffer (Nacalai Tesque, Inc.) at a ratio of 5:1, boiled for 5 min, and used as a detection sample of APPsα which is a metabolite of APP by α-secretase and APPsβ which is a metabolite of APP by β-secretase in western blot analysis.
The PVDF membrane after transfer was washed with a wash buffer and immersed in a blocking buffer to prevent non-specific binding of the primary antibody, and a blocking reaction was performed at room temperature for 1 hr. Thereafter, it was reacted with a primary antibody (APPsα, anti-human APPsα mouse monoclonal antibody (2B3, Immuno-Biological Laboratories Co., Ltd., Gunma, Japan) (3 μg/mL); APPsβ, anti-APPsβ, rabbit polyclonal antibody, 1 μg/mL) to perform an antigen-antibody-reaction at 4° C. for not less than 16 hr. […]
as §1

[5] = tested on: neprilysin; experiment: neprilysin expression amount at protein level (western blot, APP-H4 cells); assay type: cell-based, human; conditions: 48 hr, standardized to β-actin (FIG. 2)
Experimental: as §2
The aforementioned cell extract was mixed with 6×SDS-polyacrylamide gel electrophoresis (SDS-PAGE) sample buffer (Nacalai Tesque, Inc.) at a ratio of 5:1, boiled for 5 min, and used as a detection sample of neprilysin, α-secretase and β-secretase proteins.
The PVDF membrane after transfer was washed with a wash buffer and immersed in a blocking buffer to prevent non-specific binding of the primary antibody, and a blocking reaction was performed at room temperature for 1 hr. […] The PVDF membrane after the reaction was washed with the wash buffer and the secondary antibody (horseradish peroxidase conjugated anti-mouse or anti-rabbit IgG (1:10,000; GE Healthcare UK Ltd.)) corresponding to the primary antibody was reacted at room temperature for 1 hr and detection was carried out using the ECL Select Western Blotting Detection Kit (GE Healthcare UK Ltd.).
The signal intensity of the band was quantified using a densitometer LAS-4000 (GE Healthcare UK Ltd.) and image analysis software Science Laboratory 2003 Image Gauge Version 4.23 (Fujifilm Holdings Corporation, Tokyo, Japan).

[6] = tested on: neprilysin; experiment: neprilysin-dependent neutral endopeptidase activity of APP-H4 cell extract (suc-AAF-AMC coupled enzyme assay); assay type: cell-based, human; conditions: APP-H4 cells, 48 hr, 1 or 10 μM; activity without polyphenol derivative = 1 (FIG. 1)
Experimental: as §2
The total protein concentration of the cell extract was determined by a BCA protein assay kit (Takara) by using BSA as the standard solution. The final concentration of the test compound used was 1 μM or 10 μM, and quantification was performed using each solvent as a control.
The neprilysin-dependent neutral endopeptidase activity of the cell extract was measured fluorescence quantitatively by an indirect coupled enzyme assay method. […] Total 50 μL of the reaction mixture was prepared such that the final concentration was substrate 0.1 mM suc-AAF-AMC, protein in the cell extract 1-6 μg, 100 mM MES buffer (pH 6.5). With the time of addition of the substrate as the start of the reaction, the mixture was reacted at 37° C. for 1 hr, and Phe-AMC was cut out from the substrate by neutral endopeptidase. […] The mixture was reacted at 37° C. for 30 min, and Phe (phenylalanine) residue was cut out from Phe-AMC by aminopeptidase.

[7] = tested on: ADAM17; experiment: α-secretase mRNA expression, ADAM17 (real-time PCR); assay type: cell-based, human; conditions: control = 1
Experimental: In the same manner as in the above-mentioned 2, total RNA was prepared using a High Pure RNA Isolation kit (Roche 11828665001) from the cells to be the test target cells, which were treated with each polyphenol derivative and cultured, and subjected to a reverse transcription reaction using PrimeScript RT-PCR kit (TaKaRaRR014A) to give a sample (cDNA) for real-time PCR.
The prepared sample, Premix Ex taq (Perfect Real Time) (TaKaRaRR039A) and a probe, and a primer were mixed in a tube (TaKaRa SC910A), and real-time PCR reaction (initial denaturation: 95° C. 30 sec, PCR reaction: 95° C. 5 sec, 60° C. 20 sec, 40 times) was performed by Smart Cycler II System machine (TaKaRa).
The 5′-terminus of the probe was modified by a fluorescent substance FAM, and the 3′-terminus was modified by a quencher substance TAMRA, respectively.

[8] = tested on: neprilysin; experiment: neprilysin activity staining of primary culture nerve cells; assay type: cell-based; conditions: mouse primary culture nerve cells, 48 hr; Minocycline 5 μM, Somatostatin and Harmine 1 μM, others 10 μM (FIG. 4C)
Experimental: This is a method of measuring the amount of neprilysin localized on the cell membrane surface by using cultured cells. Since Aβ is secreted extracellularly, the more neprilysin is present on the cell membrane, the more efficiently Aβ can be degraded and removed. The following procedure was performed according to a previous report (JP-A-2004-151079; Saito T., Iwata N., et al., Nat. Med. 11(4), 434-439, 2005).
Nerve cells prepared from mouse embryocerebral cortex and hippocampus were cultured and fixed, and reacted with a substrate. After completion of the reaction, aminopeptidase-phosphoramidon mixture and nitrosalicylaldehyde solution were sequentially added and reacted. For the cells after completion of the reaction, positively stained images were observed using a filter for argon laser and rhodamine under a confocal laser microscope. More conveniently, it is also possible to observe positively stained images by using a FITC filter under a fluorescence microscope. When the substrate is degraded by neprilysin, an insoluble fluorescence reaction product is formed, and the site where neprilysin is present is visualized in yellow (pseudocolor and could be green). When the cells are stained by this method, the copresence of thiorphan, which is a specific inhibitor of neprilysin, causes disappearance of the positively stained images, and therefore, the presence of neprilysin on the cell surface of primary culture nerve cells of mouse embryocerebral cortex and hippocampus can be confirmed.
The nerve cells prepared from mouse embryocerebral cortex and hippocampus were cultured, the following test compounds were individually added at a given concentration from day 7 to day 21 of culture, and further cultured for 48 hr. After completion of the culture, the neprilysin activity of the mouse primary culture nerve cells was visualized and observed by the method shown in the above-mentioned 1. The stained images were quantified by an image analysis software (MetaMorph, ver. 7.7 (Universal Imaging Corporation, Downington, Pa.)) and studied. […]

[9] = molecular target: T1, β-secretase (Homo sapiens, UniProt P56817); experiment: β-secretase activity (APPsβ, western blot); assay type: cell-based; conditions: APP-H4 culture supernatant, APPsβ (FIG. 2)
T1 construct: endogenous in cells; host or cells: APP-H4 cells (culture supernatant analysed)
T1 sequence (P56817 46-501): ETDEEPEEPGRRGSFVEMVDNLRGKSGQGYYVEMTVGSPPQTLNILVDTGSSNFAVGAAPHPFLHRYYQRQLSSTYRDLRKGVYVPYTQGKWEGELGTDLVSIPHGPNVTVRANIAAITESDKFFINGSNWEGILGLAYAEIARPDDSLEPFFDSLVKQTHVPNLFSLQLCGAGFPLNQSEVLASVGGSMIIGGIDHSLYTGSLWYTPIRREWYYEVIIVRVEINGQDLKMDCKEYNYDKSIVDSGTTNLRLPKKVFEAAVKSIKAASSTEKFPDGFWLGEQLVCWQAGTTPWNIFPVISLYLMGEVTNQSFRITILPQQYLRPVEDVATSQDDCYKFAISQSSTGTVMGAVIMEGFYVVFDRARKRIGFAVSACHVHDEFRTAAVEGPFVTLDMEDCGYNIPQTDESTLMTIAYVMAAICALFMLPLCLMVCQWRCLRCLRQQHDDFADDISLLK
Experimental: as §2, with “extract. […]” for “extract.”
as §1

Row | modulator class (neprilysin / α-secretase / β-secretase) [2] | β-secretase activity, remaining relative to control [9] | Structure (SMILES) | α-secretase activity [1] | log P octanol [3] | extracellularly secreted APPsα/APPsβ ratio [4] | expression amount of neprilysin at the protein level [5] | neprilysin activity potentiating action [6] | ADAM17 expression at the mRNA level [7] | neprilysin activity potentiating action (activity staining) [8]
1 | double modulator | – | CC(C)=CCC/C(C)=C/Cc1c(O)cc(O)c2c1O[C@H](c1cc(O)c(O)c(O)c1)[C@H](OC(=O)c1cc(O)c(O)c(O)c1)C2 [NUP-16] | about 1.7 times that of control | 2.55 | about 1.6 times that of control | about 1.8 times that of control | about 1.8 times that of control | about 1.2 times that of control | –
2 | – | – | CN(C)CCCN1c2ccccc2Sc2ccc(Cl)cc21 [Chlorpromazine] | – | – | – | – | – | – | neprilysin activity potentiating action
3 | triple modulator | about 43 % that of control | C/C(=C\Cc1c(C(=O)O[C@@H]2Cc3c(O)cc(O)cc3O[C@@H]2c2cc(O)c(O)c(O)c2)cc(O)c(O)c1O)CCCC(C)CCCC(C)CCCC(C)C (some centres unmarked) [NUP-18] | about 1.2 times that of control | – | about 2.1 times that of control | about 3.8 times that of control | about 3.8 times that of control | – | –
4 | – | – | COc1ccc2c(c1)[nH]c1c(C)nccc12 [Harmine] | – | – | – | – | – | – | neprilysin activity potentiating action
5 | – | – | Oc1ccc(/C=C/c2cc(O)cc(O)c2)cc1 [Resveratrol] | – | – | – | – | about 1.4 times that of control | – | neprilysin activity potentiating action

Reference: patent US9980937B2, “Therapeutic agent for Alzheimer's disease” (NAGASAKI UNIVERSITY, priority 2014, dated 2018)
